Data as given in US20190054051A1, “DOPA Formulations for Treatments of Parkinson's Disease” (The Board of Trustees of the Leland Stanford Junior …, priority 2017, published 2019).

Tests used:
[1] = tested on: GRK6; assay: Western blot of GRK6 in intact and lesioned striatum; format: in vivo, mice; conditions: normalized to actin
Procedure: (§1) After behavioral testing, mice again received their assigned injection and then, 45 minutes later, were decapitated under anesthesia. Tissue samples were processed as follows. Briefly, the brain was dissected, rapidly frozen on dry ice, and stored at −80° C. Striatal tissue was collected from 100 μm coronal slices cut at the level of striatum using a cryostat (Leica CM1950, Leica Biosystems Inc, Buffalo Groove, Ill.). Striatal samples from the intact and the lesioned hemisphere were separately collected in 150p1 of lysis solution (Totally RNA, Ambion, Austin, Tex.). Care was taken to make sure that the tissue samples were collected from similar regions in all the brain samples analyzed, since there are differences in the expression of GRKs from rostral to caudal CPu. […]
(§2) Western blots were quantified using band densitometry in Image J software (NIH version). […] Results are represented as group mean±SEM and analyzed using one-way or repeated-measures ANOVA (RM-ANOVA), with post hoc Bonferroni tests. The mouse cylinder test was analyzed with RM-ANOVA, with group (DOPA and DOPA-ranitidine formulations) as a between-group factor and saline vs. DOPA treatment as a within-group factor. AIMs scores were analyzed using the Kruskal Wallis test for pre-testing (DOPA injected animals) and the Mann-Whitney U test for the post-testing sessions (DOPA vs DOPA-ranitidine formulations). […]

[2] = tested on: ERK; assay: Western blot of ppERK and total ERK in striatum; format: in vivo, mice; conditions: 45 minutes after last injection
Procedure: as §1, §2

[3] = tested on: Δ Fos B; assay: Western blot of Δ Fos B accumulation in striatum; design: species or system mice; conditions: mouse, in vivo
Procedure: After behavioral testing, mice again received their assigned injection and then, 45 minutes later, were decapitated under anesthesia. Tissue samples were processed as follows. Briefly, the brain was dissected, rapidly frozen on dry ice, and stored at −80° C. Striatal tissue was collected from 100 μm coronal slices cut at the level of striatum using a cryostat (Leica CM1950, Leica Biosystems Inc, Buffalo Groove, Ill.). Striatal samples from the intact and the lesioned hemisphere were separately collected in 150p1 of lysis solution (Totally RNA, Ambion, Austin, Tex.). Care was taken to make sure that the tissue samples were collected from similar regions in all the brain samples analyzed, since there are differences in the expression of GRKs from rostral to caudal CPu. […] Western blots were quantified using band densitometry in Image J software (NIH version). […] Results are represented as group mean±SEM and analyzed using one-way or repeated-measures ANOVA (RM-ANOVA), with post hoc Bonferroni tests. The mouse cylinder test was analyzed with RM-ANOVA, with group (DOPA and DOPA-ranitidine formulations) as a between-group factor and saline vs. DOPA treatment as a within-group factor. AIMs scores were analyzed using the Kruskal Wallis test for pre-testing (DOPA injected animals) and the Mann-Whitney U test for the post-testing sessions (DOPA vs DOPA-ranitidine formulations). […]

Row | SMILES | GRK6 in the lesioned hemisphere versus the intact control side [1] | ERK phosphorylation (ppERK) in the lesioned hemisphere [2] | Δ Fos B accumulation on the lesioned side [3]
1 | N[C@@H](Cc1ccc(O)c(O)c1)C(=O)O [L-DOPA, L-3,4-dihydroxyphenylalanine] | Only a marginal degree of down regulation | increased | significantly increased on the lesioned side
2 | CN/C(=C\[N+](=O)[O-])NCCSCc1ccc(CN(C)C)o1 [Ranitidine, N-(2-[(5-[(dimethylamino)methyl]furan-2-yl)methylthio]ethyl)-N′-methyl-2-nitroethene-1,1-diamine] | enhanced the expression | increased | no effects
